The target in one series is T1, lipases, preferably HSL (Rattus norvegicus, UniProt P15304).
T1 sequence (P15304 1-768 isoform P15304-2): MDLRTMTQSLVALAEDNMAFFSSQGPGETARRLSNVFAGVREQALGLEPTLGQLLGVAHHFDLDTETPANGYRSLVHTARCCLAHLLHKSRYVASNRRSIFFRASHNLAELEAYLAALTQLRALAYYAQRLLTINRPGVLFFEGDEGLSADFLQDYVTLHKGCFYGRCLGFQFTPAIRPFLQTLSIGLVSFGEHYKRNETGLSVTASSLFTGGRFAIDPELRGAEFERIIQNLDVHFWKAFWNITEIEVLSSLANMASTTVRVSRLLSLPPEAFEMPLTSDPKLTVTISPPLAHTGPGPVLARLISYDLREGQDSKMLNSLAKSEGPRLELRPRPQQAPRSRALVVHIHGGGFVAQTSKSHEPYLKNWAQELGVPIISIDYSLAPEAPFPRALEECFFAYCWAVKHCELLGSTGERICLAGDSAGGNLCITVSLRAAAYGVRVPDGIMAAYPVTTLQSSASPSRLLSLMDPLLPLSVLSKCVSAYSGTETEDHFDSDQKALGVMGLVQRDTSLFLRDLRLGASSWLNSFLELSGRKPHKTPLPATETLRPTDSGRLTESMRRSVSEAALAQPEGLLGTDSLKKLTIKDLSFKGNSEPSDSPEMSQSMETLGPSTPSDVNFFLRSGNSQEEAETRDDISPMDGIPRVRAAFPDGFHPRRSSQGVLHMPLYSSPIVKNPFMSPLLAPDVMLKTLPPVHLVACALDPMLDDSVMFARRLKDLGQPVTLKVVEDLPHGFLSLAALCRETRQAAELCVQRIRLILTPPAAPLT
The series is described as follows: Synthesized NBD-acylglycerides as substrates of lipases. It counts as biochemical.

The target in the next series is T2, HSL (Rattus norvegicus, UniProt P15304).
T2 construct: The partially purified HSL can be stored at −70° C. for 4 to 6 weeks; from tissue; host or cells: rat epididymal fat cells (male Wistar rats)
T2 sequence (P15304 1-768 isoform P15304-2): T1 sequence (P15304 1-768 isoform P15304-2)
The experiment in a line: Indirect NAG assay (extinction increase at 481 nm). The settings on record: for Absorption at 481 nm: HSL 20 μg, 60 min, NAG 0.05 mg/ml. It counts as biochemical. The procedure: A typical reaction is carried out at 30° C. for 60 min, for example in 1.5 ml Eppendorf vessels or 96-hole plates. […] 180 μl of the substrate solution (20 μg/ml of phosphatidylcholine, 10 μg/ml of phosphatidylinositol, 50 μg/ml of NAG in assay buffer) are added. After a preincubation for 15 min at 30° C., 20 μl of HSL in assay buffer are pipetted in and the extinction is immediately measured (see above) at 481 nm in a cuvette photometer (0.5 ml cuvette) or microtiter plate reader. After a certain incubation time, which is variable and depends on the chosen enzyme concentration and can be between 2 and 240 minutes, in this case incubation at 30° C. for 60 min, the extinction is measured again. The increase in the extinction in the yellow region, in this case at 481 nm, is a measure of the enzyme activity.
Isolated rat fat cells are obtained from epididymal fatty tissue from untreated male rats (Wistar, 220-250 g) by collagenase treatment according to published processes. The fat cells from 10 rats are washed three times by flotation with 50 ml each of homogenization buffer ([…], pH 7.4, 0.25 M sucrose, 1 mM ethylenediamine-N,N,N′,N′-tetraacetic acid (EDTA), 1 mM dithiothreitol (DTT), 10 μg/ml of leupeptin, 10 μg/ml of antipain, 20 μg/ml of pepstatin) and finally taken up in 10 ml of homogenization buffer. The fat cells are homogenized in a Teflon-in-glass homogenizer (Braun-Melsungen) by 10 strokes at 1500 rpm and 15° C. The homogenizate is centrifuged (Sorvall SM24 tubes, 5000 rpm, 10 min, 4° C.). The […] between the overlying fatty layer and the pellet is removed and the centrifugation is repeated. The […] resulting from this is centrifuged again (Sorvall SM24 tubes, 20,000 rpm, 45 min, 4° C.). […] After incubation for 60 min at 4° C. (shake at intervals of 15 min), the batch is centrifuged (Sorvall SM24 tubes, 3000 rpm, 10 min, 4° C.). The supernatant is brought to pH 5.2 by addition of glacial acetic acid and incubated at 4° C. for 30 min. […] The suspension is dialyzed overnight at 4° C. against 25 mM TRIS/HCl, pH 7.4, 50% glycerol, 1 mM DTT, and 10 μg/ml of leupeptin, pepstatin, and antipain and then applied to a hydroxylapatite column (0.1 g per 1 ml of suspension, equilibrated with 10 mM potassium phosphate, pH 7.0, 30% glycerol, 1 mM DTT). The column is washed with four volumes of equilibration buffer at a flow rate of 20 to 30 ml/h. The HSL is eluted with a volume of equilibration buffer which contains 0.5 M potassium phosphate, then dialyzed (see above) and concentrated 5 to 10 times by ultrafiltration (Amicon Diaflo PM 10 filter) at 4° C. The partially purified HSL can be stored at −70° C. for 4 to 6 weeks.
6 mg of phosphatidylcholine and 6 mg of phosphatidylinositol are dissolved in 1 ml of chloroform each. 10 mg of NAG are dissolved in 1 ml of chloroform. […] The chloroform (225 μl total volume) is completely removed by overblowing with a stream of N2. The dried substrate can be stored at 4° C. for up to three days. For the preparation of the phospholipid vesicles/micelles having intercalated NAG (on the test day), the dried substrate is taken up in 20 ml of assay buffer (25 mM TRIS/HCl, pH 7.4; 150 mM NaCl) and two ultrasonic treatments with an ultrasonic probe (Branson Sonifier type 11, standard microtip): 1st treatment setting 2, 2×1 min, in between in each case 1 min on ice; 2nd treatment setting 4, 2×1 min, in between in each case 1 min on ice. […] Before use as a substrate (within the next 2 h), the solution is additionally incubated on ice for 15 min.
The assay is carried out at 30° C. for 60 min in 1.5 ml Eppendorf vessels or 96-hole plates.

Series [1] is described as follows: Substrate stability towards detergents and solvents (extinction at 550 nm). It counts as physicochemical. The settings on record: for Absorption at 550 nm: NAG 0.05 mg/ml, 37° C., 180 min.

Read-outs that look alike come from different tables or passages of the source.

`O=C(CCCCCCCCCCCNc1ccc([N+](=O)[O-])c2nonc12)OC[C@@H](O)CO` [(3a), (S)-2,3-Dihydroxypropyl 12-(7-nitrobenzo[1,2,5]oxadiazol-4-ylamino) dodecanoate]: on lipases, preferably HSL, the “Activity as substrate of lipases” value is recorded as “identical biological activity”.

As to `C[S+](C)[O-]` [DMSO, Dimethyl sulfoxide], at HSL (0.5% agent), the “Reduction of the enzyme activity” value was 10%. Also, the “Decrease in the enzyme activity (arithmetically)” value on HSL (1% agent, corrected for substrate dissolution) is given as 20%. Moreover, the “Absorption at 481 nm” value on HSL (agent 0.05 %) is listed as 3423 ± 286 arb. units; on HSL (agent 0.1 %), 3320 ± 319 arb. units; at HSL (agent 0.2 %) it was 3301 ± 276 arb. units; on HSL (agent 0.5 %), 3199 ± 235 arb. units; at HSL (agent 1 %) it was 3156 ± 196 arb. units; on HSL (agent 2 %), 1488 ± 213 arb. units. Also, the “Absorption at 481 nm” value on HSL (agent 5 %) came to 945 ± 169 arb. units; at HSL (agent 10 %), 272 ± 42 arb. units. On HSL (up to 1% agent), the “Reduction of the amount of released NBD-FA” value is reported as “approximately 10%”. Further, in series [1] (1% agent), the “Decrease of the extinction (amount of substrate)” value was determined as 10%. Also, the “Absorption at 550 nm” value in series [1] (agent 0.05 %) was found to be 3003 ± 259 arb. units; in series [1] (agent 0.1 %), 3199 ± 302 arb. units; in series [1] (agent 0.2 %) it was 2984 ± 273 arb. units; in series [1] (agent 0.5 %) it was 3055 ± 289 arb. units; in series [1] (agent 1 %), 2845 ± 254 arb. units; in series [1] (agent 2 %) it was 2317 ± 266 arb. units. Also, the “Absorption at 550 nm” value in series [1] (agent 5 %) was found to be 1432 ± 187 arb. units; in series [1] (agent 10 %), 372 ± 51 arb. units.

With Triton ® X-100 [TX-100], on HSL, the “Effect on the HSL activity” value is given as “increase in the HSL activity”. For the same compound, the “Absorption at 550 nm” value worked out at 3166 ± 308 arb. units in series [1] (agent 0.05 %); 3247 ± 253 arb. units in series [1] (agent 0.1 %); 3119 ± 277 arb. units in series [1] (agent 0.2 %); 2954 ± 248 arb. units in series [1] (agent 0.5 %); 2154 ± 199 arb. units in series [1] (agent 1 %); 956 ± 101 arb. units in series [1] (agent 2 %). Further, the entries for the “Absorption at 550 nm” value in series [1] (agent 5 %) and in series [1] (agent 10 %) were 489 ± 77 arb. units and 167 ± 45 arb. units, respectively.

Turning to `CCO` [Ethanol], the “Absorption at 481 nm” value on HSL (agent 0.05 %) turned out to be 3776 ± 253 arb. units; at HSL (agent 0.1 %), 4093 ± 387 arb. units; on HSL (agent 0.2 %), 4894 ± 325 arb. units; at HSL (agent 0.5 %) it was 4231 ± 296 arb. units; on HSL (agent 1 %), 3541 ± 294 arb. units; at HSL (agent 2 %), 2143 ± 215 arb. units. The “Absorption at 481 nm” value on HSL (agent 5 %) was found to be 1327 ± 143 arb. units; at HSL (agent 10 %), 423 ± 55 arb. units. Further, the “Effect on the HSL activity” value at HSL (between 0.1 and 1% agent) is given as “increase in the HSL activity”. Besides, the “Absorption at 550 nm” value in series [1] (agent 0.05 %) amounted to 3147 ± 288 arb. units; in series [1] (agent 0.1 %), 3056 ± 213 arb. units; in series [1] (agent 0.2 %) it was 3097 ± 253 arb. units; in series [1] (agent 0.5 %) it was 2995 ± 231 arb. units; in series [1] (agent 1 %) it was 2834 ± 256 arb. units; in series [1] (agent 2 %), 2510 ± 194 arb. units. The “Absorption at 550 nm” value came to 1935 ± 163 arb. units in series [1] (agent 5 %) and 873 ± 103 arb. units in series [1] (agent 10 %).

Turning to `CCCCCCCCCCCCOS(=O)(=O)[O-].[Na+]` [SDS, Sodium dodecyl sulfate], the “Absorption at 550 nm” value in series [1] (agent 0.05 %) amounted to 3063 ± 288 arb. units; in series [1] (agent 0.1 %), 2935 ± 254 arb. units; in series [1] (agent 0.2 %), 2769 ± 275 arb. units; in series [1] (agent 0.5 %), 2506 ± 301 arb. units; in series [1] (agent 1 %), 2296 ± 252 arb. units; in series [1] (agent 2 %), 1413 ± 178 arb. units. Further, the entries for the “Absorption at 550 nm” value in series [1] (agent 5 %) and in series [1] (agent 10 %) were 603 ± 89 arb. units and 102 ± 12 arb. units, respectively.

Regarding `CC(C)=O` [acetone], the “Effect on the HSL activity” value on HSL is recorded as “increase in the HSL activity”.

For `CN(C)C=O` [DMF, N,N-Dimethylformamide], the “Effect on the HSL activity” value at HSL was “significant loss in activity”. The “NAG released from the phospholipid/vesicle structures” value in series [1] (1% agent) was “over 80%”. The “Absorption at 550 nm” value in series [1] (agent 0.05 %) amounted to 3121 ± 294 arb. units; in series [1] (agent 0.1 %), 2655 ± 308 arb. units; in series [1] (agent 0.2 %) it was 1952 ± 299 arb. units; in series [1] (agent 0.5 %) it was 1234 ± 234 arb. units; in series [1] (agent 1 %) it was 654 ± 112 arb. units; in series [1] (agent 2 %), 251 ± 82 arb. units. In addition, the “Absorption at 550 nm” value was found to be 105 ± 42 arb. units in series [1] (agent 5 %) and 38 ± 10 arb. units in series [1] (agent 10 %).

As for `CO` [Methanol], the “Effect on the HSL activity” value on HSL is reported as “increase in the HSL activity”. In addition, the “Absorption at 550 nm” value in series [1] (agent 0.05 %) is given as 3056 ± 243 arb. units; in series [1] (agent 0.1 %) it was 3102 ± 276 arb. units; in series [1] (agent 0.2 %), 2945 ± 241 arb. units; in series [1] (agent 0.5 %) it was 2683 ± 210 arb. units; in series [1] (agent 1 %), 2534 ± 191 arb. units; in series [1] (agent 2 %), 1985 ± 165 arb. units. Moreover, the results for the “Absorption at 550 nm” value in series [1] (agent 5 %) and in series [1] (agent 10 %) were 1438 ± 121 arb. units and 475 ± 92 arb. units, respectively.

These data come from patent publication US6783949B1, “Processes for determining whether a test substance contains lipases or lipase inhibitors” (Aventis Pharma Deutschland GmbH, priority 1999, dated 2004).
